Measured values: the NIST ThermoML archive (doi:10.1021/je100529s)
Numbers after ± are expanded uncertainties.

Test: activity coefficient (dimensionless); of the first substance listed, at infinite dilution; xn = mol fraction of the nth substance listed
Conditions: Liquid, Gas Stripping Method, x1 = 0

SMILES | activity coefficient (309.99 K) | activity coefficient (319.99 K) | activity coefficient (329.99 K) | activity coefficient (340.02 K) | activity coefficient (289.98 K) | activity coefficient (299.98 K) | activity coefficient (299.99 K) | activity coefficient (309.98 K) | activity coefficient (319.98 K) | activity coefficient (340.01 K) | activity coefficient (289.97 K)
CC(F)F [1,1-difluoroethane] + Cc1ccc(O)cc1 | 4.46 ± 0.27 | 4.26 ± 0.26 | 4.07 ± 0.24 | 3.88 ± 0.23 |  |  |  |  |  |  | 
CC(F)F [1,1-difluoroethane] + Cc1cccc(O)c1 | 4.37 ± 0.26 | 4.16 ± 0.25 | 3.98 ± 0.24 |  | 4.79 ± 0.29 | 4.59 ± 0.28 |  |  |  |  | 
CC(F)F [1,1-difluoroethane] + Cc1ccccc1O | 3.84 ± 0.23 | 3.67 ± 0.22 | 3.49 ± 0.21 |  |  |  | 4.02 ± 0.24 |  |  |  | 
C=CC=C [1,3-butadiene] + Cc1ccc(O)cc1 | 3.26 ± 0.2 | 3.16 ± 0.19 | 3.07 ± 0.18 | 2.99 ± 0.18 |  |  |  |  |  |  | 
C=CC=C [1,3-butadiene] + Cc1cccc(O)c1 | 3.22 ± 0.19 | 3.13 ± 0.19 | 3.05 ± 0.18 |  | 3.32 ± 0.2 | 3.26 ± 0.2 |  |  |  |  | 
C=CC=C [1,3-butadiene] + Cc1ccccc1O | 2.81 ± 0.17 | 2.72 ± 0.16 | 2.63 ± 0.16 |  |  |  | 2.87 ± 0.17 |  |  |  | 
C=CCC [1-butene] + Cc1ccc(O)cc1 | 4.66 ± 0.28 | 4.55 ± 0.27 | 4.4 ± 0.26 | 4.26 ± 0.26 |  |  |  |  |  |  | 
C=CCC [1-butene] + Cc1cccc(O)c1 | 4.62 ± 0.28 | 4.48 ± 0.27 | 4.36 ± 0.26 |  | 4.86 ± 0.29 | 4.75 ± 0.29 |  |  |  |  | 
C=CCC [1-butene] + Cc1ccccc1O | 4.15 ± 0.25 | 4.03 ± 0.24 | 3.87 ± 0.23 |  |  |  | 4.29 ± 0.26 |  |  |  | 
CC(C)C [2-methylpropane] + Cc1ccc(O)cc1 | 7.93 ± 0.48 | 7.62 ± 0.46 | 7.3 ± 0.44 | 7.03 ± 0.42 |  |  |  |  |  |  | 
CC(C)C [2-methylpropane] + Cc1cccc(O)c1 | 7.87 ± 0.47 | 7.54 ± 0.45 | 7.21 ± 0.43 |  | 8.35 ± 0.5 | 8.11 ± 0.49 |  |  |  |  | 
CC(C)C [2-methylpropane] + Cc1ccccc1O | 7.57 ± 0.45 | 7.14 ± 0.43 | 6.73 ± 0.4 |  |  |  | 7.92 ± 0.48 |  |  |  | 
C=C(C)C [2-methylpropene] + Cc1ccc(O)cc1 | 4.44 ± 0.27 | 4.34 ± 0.26 | 4.2 ± 0.25 | 4.07 ± 0.24 |  |  |  |  |  |  | 
C=C(C)C [2-methylpropene] + Cc1cccc(O)c1 | 4.42 ± 0.27 | 4.3 ± 0.26 | 4.16 ± 0.25 |  | 4.66 ± 0.28 | 4.56 ± 0.27 |  |  |  |  | 
C=C(C)C [2-methylpropene] + Cc1ccccc1O | 3.98 ± 0.24 | 3.84 ± 0.23 | 3.7 ± 0.22 |  |  |  | 4.11 ± 0.25 |  |  |  | 
C/C=C/C [(E)-2-butene] + Cc1ccc(O)cc1 | 4.48 ± 0.27 | 4.35 ± 0.26 | 4.25 ± 0.26 | 4.14 ± 0.25 |  |  |  |  |  |  | 
C/C=C/C [(E)-2-butene] + Cc1cccc(O)c1 | 4.49 ± 0.27 | 4.35 ± 0.26 | 4.23 ± 0.25 |  | 4.68 ± 0.28 | 4.57 ± 0.27 |  |  |  |  | 
C/C=C/C [(E)-2-butene] + Cc1ccccc1O | 4.13 ± 0.25 | 3.98 ± 0.24 | 3.82 ± 0.23 |  |  |  | 4.25 ± 0.26 |  |  |  | 

SMILES | activity coefficient (309.99 K) | activity coefficient (319.99 K) | activity coefficient (329.99 K) | activity coefficient (340.02 K) | activity coefficient (289.98 K) | activity coefficient (299.98 K) | activity coefficient (299.99 K) | activity coefficient (309.98 K) | activity coefficient (319.98 K) | activity coefficient (340.01 K) | activity coefficient (289.97 K)
C/C=C\C [(Z)-2-butene] + Cc1ccc(O)cc1 | 4.12 ± 0.25 | 4.03 ± 0.24 | 3.91 ± 0.23 | 3.8 ± 0.23 |  |  |  |  |  |  | 
C/C=C\C [(Z)-2-butene] + Cc1cccc(O)c1 | 4.09 ± 0.25 | 3.99 ± 0.24 | 3.88 ± 0.23 |  | 4.29 ± 0.26 | 4.2 ± 0.25 |  |  |  |  | 
C/C=C\C [(Z)-2-butene] + Cc1ccccc1O | 3.69 ± 0.22 | 3.57 ± 0.21 | 3.44 ± 0.21 |  |  |  | 3.79 ± 0.23 |  |  |  | 
CCCC [butane] + Cc1ccc(O)cc1 | 6.88 ± 0.41 | 6.62 ± 0.4 | 6.32 ± 0.38 | 6.09 ± 0.37 |  |  |  |  |  |  | 
CCCC [butane] + Cc1cccc(O)c1 | 6.88 ± 0.41 | 6.6 ± 0.4 | 6.33 ± 0.38 |  | 7.22 ± 0.43 | 7.06 ± 0.42 |  |  |  |  | 
CCCC [butane] + Cc1ccccc1O | 6.61 ± 0.4 | 6.26 ± 0.38 | 5.92 ± 0.36 |  |  |  | 6.92 ± 0.42 |  |  |  | 
CCCl [chloroethane] + Cc1ccc(O)cc1 |  |  | 1.98 ± 0.12 |  |  |  |  | 2.09 ± 0.13 | 2.06 ± 0.12 | 1.93 ± 0.12 | 
CCCl [chloroethane] + Cc1cccc(O)c1 |  | 1.99 ± 0.12 | 1.93 ± 0.12 |  |  | 2.1 ± 0.13 |  | 2.05 ± 0.12 |  |  | 2.13 ± 0.13
CCCl [chloroethane] + Cc1ccccc1O |  |  | 1.7 ± 0.1 |  |  |  | 1.83 ± 0.11 | 1.77 ± 0.11 | 1.76 ± 0.11 |  | 
COC [dimethyl ether] + Cc1ccc(O)cc1 |  |  | 0.21 ± 0.01 |  |  |  |  | 0.16 ± 0.01 | 0.19 ± 0.01 | 0.24 ± 0.02 | 
COC [dimethyl ether] + Cc1cccc(O)c1 |  | 0.18 ± 0.01 | 0.2 ± 0.01 |  |  | 0.13 ± 0.01 |  | 0.15 ± 0.01 |  |  | 0.11 ± 0.01
COC [dimethyl ether] + Cc1ccccc1O |  |  | 0.18 ± 0.01 |  |  |  | 0.1 ± 0.01 | 0.12 ± 0.01 | 0.14 ± 0.01 |  | 
CCC [propane] + Cc1ccc(O)cc1 | 6.29 ± 0.38 | 6.12 ± 0.37 | 5.93 ± 0.36 | 5.74 ± 0.34 |  |  |  |  |  |  | 
CCC [propane] + Cc1cccc(O)c1 | 6.24 ± 0.37 | 6.06 ± 0.36 | 5.88 ± 0.35 |  | 6.31 ± 0.38 | 6.36 ± 0.38 |  |  |  |  | 
CCC [propane] + Cc1ccccc1O | 6.04 ± 0.36 | 5.83 ± 0.35 | 5.58 ± 0.33 |  |  |  | 6.34 ± 0.38 |  |  |  | 
C=CC [propene] + Cc1ccc(O)cc1 | 4.07 ± 0.24 | 4.02 ± 0.24 | 3.92 ± 0.24 | 3.84 ± 0.23 |  |  |  |  |  |  | 
C=CC [propene] + Cc1cccc(O)c1 | 4.05 ± 0.24 | 3.97 ± 0.24 | 3.88 ± 0.23 |  | 4.1 ± 0.25 | 4.13 ± 0.25 |  |  |  |  | 
C=CC [propene] + Cc1ccccc1O | 3.71 ± 0.22 | 3.6 ± 0.22 | 3.48 ± 0.21 |  |  |  | 3.81 ± 0.23 |  |  |  | 
